PMC3723849, “Evaluation of Phage Display Discovered Peptides as Ligands for Prostate-Specific Membrane Antigen (PSMA)” (PLoS ONE, 2013)
pIC50: −log10 of the molar value. Residues, ends and D or L forms follow the SMILES beside them. *: point of attachment. Acm = CC(=O)NC*

Legend:
PSMA-His6 [1] = molecular target: T1, PSMA-His6 (Homo sapiens, UniProt Q04609); assay: PSMA enzyme assay (NAAG hydrolysis, Amplex Red glutamate detection); format: biochemical; set-up: A 15-mer library was screened against the soluble ectodomain of PSMA; purchased R&D Systems
Procedure: The glutamic acid/glutamate released from the natural substrate of PSMA, NAAG (N-acetylaspartylglutamate), was analyzed by the fluorescence-based Amplex Red Glutamic Acid/Glutamate Oxidase assay kit (Invitrogen) as previously described, [22], [32], [33]. […] Then NAAG (4 µM, 10 µL) was added to the peptide/PSMA-His6 mixture (37°C, 30 min). The enzymatic reaction was quenched (500 mM NaH2PO4/Na2HPO4, pH 7.4, 10 µL). […] Data was analyzed by non-linear regression with GraphPad Prism.

PSMA-His6 [2] = molecular target: T1, PSMA-His6; assay: AlphaScreen competition binding assay
Procedure: The AlphaScreen competition binding assay was performed based on published procedures [29], [30], [31]. […] The mixture was incubated (ambient temperature, 1 h), and then nickel chelate acceptor beads (5 µL, 120 µg/mL) were added followed by a second incubation (dark, ambient temperature, 1 h). Streptavidin donor beads (5 µL, 120 µg/mL) were added for a final incubation (dark, ambient temperature, 30 m). […] Data was analyzed by non-linear regression with GraphPad Prism.
Only when the peptide binds to PSMA (thus bringing the two beads close to each other), can the AlphaScreen (emission) signal be generated, in which case, the singlet oxygen generated by the excitation at 680 nm on the donor bead can transfer energy to the adjacent acceptor bead and subsequently produce an emission signal at 520–620 nm.

[3] = NAAG substrate, PSMA-His6, 37°C, read-out: Enzyme inhibition (footnote symbols: no inhibition observed at the stated concentration)
[4] = highest concentration tested without inhibition, limited by solubility of the peptide, read-out: PSMA enzymatic reaction: no inhibition at the stated concentration

T1 sequence (Q04609 44-750 limits assumed): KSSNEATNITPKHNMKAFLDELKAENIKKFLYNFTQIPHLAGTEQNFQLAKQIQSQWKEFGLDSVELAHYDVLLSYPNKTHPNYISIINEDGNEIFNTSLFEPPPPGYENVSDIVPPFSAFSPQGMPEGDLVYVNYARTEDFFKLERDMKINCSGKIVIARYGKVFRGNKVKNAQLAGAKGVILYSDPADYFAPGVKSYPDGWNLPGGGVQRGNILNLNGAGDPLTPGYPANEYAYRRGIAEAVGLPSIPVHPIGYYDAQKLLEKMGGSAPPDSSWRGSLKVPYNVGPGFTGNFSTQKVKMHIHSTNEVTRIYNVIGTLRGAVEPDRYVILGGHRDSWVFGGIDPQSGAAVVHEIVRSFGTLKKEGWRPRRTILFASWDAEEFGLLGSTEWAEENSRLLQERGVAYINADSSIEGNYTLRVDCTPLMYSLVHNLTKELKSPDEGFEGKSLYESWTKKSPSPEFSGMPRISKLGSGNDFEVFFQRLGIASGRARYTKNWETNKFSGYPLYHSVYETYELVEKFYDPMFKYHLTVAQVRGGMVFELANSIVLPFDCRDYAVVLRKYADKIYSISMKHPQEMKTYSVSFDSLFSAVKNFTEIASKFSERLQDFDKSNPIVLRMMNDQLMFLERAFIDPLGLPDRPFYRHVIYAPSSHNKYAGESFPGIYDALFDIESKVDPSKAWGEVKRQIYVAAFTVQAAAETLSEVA

Row | SMILES | pIC50 (PSMA-His6 [1]; against 1 µM NAAG, peptide pre-incubated with PSMA-His6 37°C 30 min, reaction 37°C 30 min, TBS, fluorescence Ex 530/Em 590, read-out: Enzyme inhibition IC50) | pIC50 (PSMA-His6 [1]; [3]) | pIC50 (PSMA-His6 [1]; [4]) | pIC50 (PSMA-His6 [2])
1 | CC(C)[C@H](NC(=O)[C@H](CO)NC(=O)[C@H](Cc1ccccc1)NC(=O)[C@H](CO)NC(=O)[C@H](Cc1c[nH]cn1)NC(=O)[C@@H](N)CO)C(=O)NCC(=O)N[C@@H](CO)C(=O)NCC(=O)N[C@@H](CC(=O)O)C(=O)N[C@@H](Cc1c[nH]cn1)C(=O)N[C@@H](CO)C(=O)N1CCC[C@H]1C(=O)N[C@@H](Cc1ccccc1)C(=O)N[C@H](C(=O)NCC(=O)NCC(=O)NCC(=O)N[C@@H](CO)C(=O)NCCOCCOCCOCCOCCOCCOCCC(=O)N[C@@H](CSC1CC(=O)N(CCC(=O)NCCCC[C@H](NC(=O)CCN2C(=O)CC(SC[C@H](NC(=O)CCOCCOCCOCCOCCOCCOCCNC(=O)[C@H](CO)NC(=O)CNC(=O)CNC(=O)CNC(=O)[C@@H](NC(=O)[C@H](Cc3ccccc3)NC(=O)[C@@H]3CCCN3C(=O)[C@H](CO)NC(=O)[C@H](Cc3c[nH]cn3)NC(=O)[C@H](CC(=O)O)NC(=O)CNC(=O)[C@H](CO)NC(=O)CNC(=O)[C@@H](NC(=O)[C@H](CO)NC(=O)[C@H](Cc3ccccc3)NC(=O)[C@H](CO)NC(=O)[C@H](Cc3c[nH]cn3)NC(=O)[C@@H](N)CO)C(C)C)[C@@H](C)O)C(N)=O)C2=O)C(=O)NCCCC[C@H](NC(=O)[C@H](CCCCNC(=O)CCN2C(=O)CC(SC[C@H](NC(=O)CCOCCOCCOCCOCCOCCOCCNC(=O)[C@H](CO)NC(=O)CNC(=O)CNC(=O)CNC(=O)[C@@H](NC(=O)[C@H](Cc3ccccc3)NC(=O)[C@@H]3CCCN3C(=O)[C@H](CO)NC(=O)[C@H](Cc3c[nH]cn3)NC(=O)[C@H](CC(=O)O)NC(=O)CNC(=O)[C@H](CO)NC(=O)CNC(=O)[C@@H](NC(=O)[C@H](CO)NC(=O)[C@H](Cc3ccccc3)NC(=O)[C@H](CO)NC(=O)[C@H](Cc3c[nH]cn3)NC(=O)[C@@H](N)CO)C(C)C)[C@@H](C)O)C(N)=O)C2=O)NC(=O)CCN2C(=O)CC(SC[C@H](NC(=O)CCOCCOCCOCCOCCOCCOCCNC(=O)[C@H](CO)NC(=O)CNC(=O)CNC(=O)CNC(=O)[C@@H](NC(=O)[C@H](Cc3ccccc3)NC(=O)[C@@H]3CCCN3C(=O)[C@H](CO)NC(=O)[C@H](Cc3c[nH]cn3)NC(=O)[C@H](CC(=O)O)NC(=O)CNC(=O)[C@H](CO)NC(=O)CNC(=O)[C@@H](NC(=O)[C@H](CO)NC(=O)[C@H](Cc3ccccc3)NC(=O)[C@H](CO)NC(=O)[C@H](Cc3c[nH]cn3)NC(=O)[C@@H](N)CO)C(C)C)[C@@H](C)O)C(N)=O)C2=O)C(=O)NCCC(=O)O)C1=O)C(N)=O)[C@@H](C)O (stereo partly drawn) [(562)4] | 3.51 |  |  | 
2 | CC(=O)NCSC[C@H](NC(=O)[C@H](CO)NC(=O)[C@H](Cc1ccccc1)NC(=O)[C@H](Cc1ccccc1)NC(=O)[C@H](CO)NC(=O)[C@@H](N)CC(C)C)C(=O)N[C@@H](Cc1c[nH]c2ccccc12)C(=O)N[C@@H](CC(C)C)C(=O)N[C@@H](CCCNC(=N)N)C(=O)N[C@@H](CCCNC(=N)N)C(=O)N[C@@H](CO)C(=O)N[C@@H](Cc1ccccc1)C(=O)N[C@@H](CO)C(=O)N[C@@H](CC(C)C)C(=O)N[C@H](C(N)=O)[C@@H](C)O [Peptide 564] (H-LSFFSC(Acm)WLRRSFSLT-NH2) |  | < 4.26 | < 4.26 | 
3 | CC[C@H](C)[C@H](NC(=O)[C@H](CSCNC(C)=O)NC(=O)[C@H](CCCNC(=N)N)NC(=O)[C@H](CCSC)NC(=O)[C@H](CC(C)C)NC(=O)[C@H](Cc1ccccc1)NC(=O)[C@H](CC(C)C)NC(=O)[C@H](CC(C)C)NC(=O)[C@H](Cc1ccccc1)NC(=O)[C@H](CCSC)NC(=O)[C@H](CCCNC(=N)N)NC(=O)[C@H](C)N)C(=O)NCC(=O)N[C@@H](CSCNC(C)=O)C(=O)N[C@@H](Cc1ccc(O)cc1)C(N)=O [Peptide 565] (H-ARMFLLFLMRC(Acm)IGC(Acm)Y-NH2; N-terminus assumed) |  | < 4.84 | < 4.84 | < 5.32
